Laboratory results reported in PubChem BioAssay AID1918999 (Molecular Pharmacology Branch, DTP, NCI, 2023).
Several values for one entry are separate records, joined by “and”; a condition that tells them apart may be missing. Equal values may be shown once.

System: 556581-035-R-J1-PDC complex spheroid growth
Assay: Anticancer human tumor 556581-035-R-J1-PDC patient-derived ovarian carcinoma cell line growth inhibition [AhR]
Conditions: for viability, T/C: stronger effect = lower value
Excerpt: Multicellular complex tumor spheroid response to aryl hydrocarbon receptor antagonists in combination with a variety of drugs and investigational agents in selected tumor cell lines
The current study was undertaken to assess response to aryl hydrocarbon receptor antagonists in combination with standard-of-care drugs and investigational agents in solid tumor complex spheroid models. Complex spheroids include a stromal component modeled by human endothelial cells (HUVEC) and fibroblasts modeled by human mesenchymal stem cells (MSCs). The concentration ranges selected for each drug and investigational agent were based upon clinically achievable concentrations if the clinical Cmax of the agent was known.
Compounds. The drugs and investigational agents: BAY 2416964 (NSC825713), GNF351 (NSC835774), CH-223191 (NSC835775), CPI-455 (NSC825282), aza-TdCyd (NSC777586), decitabine (NSC127716), belinostat (NSC758774), entinostat (NSC756642), pevonedistat (NSC761192), tazemetostat (NSC777109), talazoparib (NSC765396), olaparib (NSC753686), selinexor (NSC780203), nedisertib (M3814, NSC802822), bortezomib (NSC756655), venetoclax (NSC766270), doxorubicin (NSC123127), elimusertib (BAY189344, NSC800525), ceralasertib (AZD6738, NSC777638), TAK-243 (NSC785004), alisertib (NSC759677), etoposide (NSC141540), topotecan (NSC609699), eribulin (NSC707389), gemcitabine (NSC613327), carboplatin (NSC241240), cisplatin (NSC119875), and SN-38 (NSC673596) were obtained from the National Cancer Institute (NCI) Developmental Therapeutics Program Chemical Repository (32). The FDA-approved anticancer drug set is available from the Developmental Therapeutics Program at https://dtp.cancer.gov/organization/dscb/obtaining/available plates.htm. […] The stock solutions were prepared in dimethyl sulfoxide (DMSO, Sigma-Aldrich, St. Louis, MO, cat. D2650), except for the platinum compounds which were prepared in saline (Quality Biological, Gaithersburg, MD, cat. 114-055-101), at 800-fold the tested concentration and stored at -70 degrees C prior to their use. All drugs and investigational agents were tested over a range starting from a high concentration at or near the clinical Cmax and decreasing in half-log increments. If the clinical Cmax for an agent had not been determined, the highest concentration tested was 10 microM (Table 1).
Cell Culture. All cells were maintained in an incubator at 37 degrees C and 5% CO2 with 95% humidity. The PDC lines were cultured according to standard operating procedures established by the NCI PDMR (https://pdmr.cancer.gov). Briefly, all PDCs were thawed and cultured in Matrigel-coated flasks prepared with a working solution of 1X Ham's F-12 nutrient mix, without supplementation (Invitrogen, Waltham, MA, cat. 11765054), 100 U/mL penicillin-streptomycin (Invitrogen, cat. 15140122), and 2.5% Matrigel (Corning Inc., Corning, NY, cat. 354248) for the first three passages. All PDCs were cultured in complete DMEM/F-12 media containing advanced DMEM/F-12 (Invitrogen, cat. 12634028), 4.9% defined fetal bovine serum, heat inactivated (HyClone Laboratories Inc., Logan, UT, cat. SH30070.03HI), 389 ng/mL hydrocortisone (Sigma-Aldrich, cat. H4001), 9.7 ng/mL human EGF recombinant protein (Invitrogen, cat. PHG0313), 23.4 microg/mL adenine (Sigma-Aldrich, cat. A2786), 97.3 U/mL penicillin-streptomycin (Invitrogen, cat. 15140122), 1.9 mM L-glutamine (Invitrogen, cat. 25030081), and 9.7 microM Y-27632 dihydrochloride (Tocris Bioscience, Bristol, United Kingdom, cat. 1254). The PDCs were cultured in complete DMEM/F12 media without 10 microM Y-27632 dihydrochloride for at least two passages prior to the screen. The established cell lines NCI-H1341 and […] were cultured in DMEM/F-12, HEPES (Invitrogen, cat. 11330032), 5% defined fetal bovine serum (HyClone Laboratories Inc., cat. SH30070.03), ITS premix universal culture supplement [insulin (5 microg/mL), transferrin (5 microg/mL), and selenious acid (5 ng/mL)] […]
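For viability, T/C in this document: compound exposure lasted 7 days; 100% = DMSO vehicle control growth.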

| SMILES | viability, T/C (compound 0.0316 µM) | viability, T/C (compound 0.1 µM) | viability, T/C (compound 0.316 µM) | viability, T/C (compound 1 µM) | viability, T/C (compound 3.16 µM) | viability, T/C (compound 10 µM) | IC50 (curve of compound) | further results |
| --- | --- | --- | --- | --- | --- | --- | --- | --- |
| COc1cccc2c1C(=O)c1c(O)c3c(c(O)c1C2=O)CC(O)(C(=O)CO)CC3OC1CC(N)C(O)C(C)O1 (stereo not given) | 90.7% and 86.7% and 84.5% | 89% and 78.2% and 76.5% | 58.8% and 57.2% and 55% | 9.14% and 19.1% and 19.5% | 1.93% and 3.75% and 4.65% | 3.8% and 2.01% and 3.67% | 388 nM and 386 nM and 366 nM | – |
| Cc1ccccc1N=Nc1ccc(NC(=O)c2ccnn2C)c(C)c1 | – | – | – | 99.6% [middle of 20 runs] | – | – | – | IC50 (compound alone, run of 06/14/2022): > 10000 nM |
| Cc1cncc(-c2nc(NCCc3c[nH]c4ccccc34)c3ncn(C(C)C)c3n2)c1 | – | – | 103% [middle of 20 runs] | – | – | 83.6% [middle of 20 runs] | – | IC50 (compound alone, run of 06/06/2022): > 10000 nM |
| Cn1ncnc1C1c2n[nH]c(=O)c3cc(F)cc(c23)NC1c1ccc(F)cc1 (stereo not given) | 100% (2×) and 103% | 94.4% and 98.2% and 94.7% | – | – | – | – | > 100 nM | viability, T/C (compound 0.000316 µM): 108% and 106% and 107%; viability, T/C (compound 0.001 µM): 103% and 101% and 102%; viability, T/C (compound 0.00316 µM): 101% and 93.3% and 98.7%; viability, T/C (compound 0.01 µM): 92.7% and 93.9% and 101% |
| NS(=O)(=O)OCC1CC(n2ccc3c(NC4CCc5ccccc54)ncnc32)CC1O (stereo not given) | 100% and 99.4% and 89% | 109% and 118% and 98.8% | 100% and 104% and 111% | 90% and 108% and 103% | 88% and 106% and 113% | 73.4% and 86.2% and 81.5% | > 10000 nM | – |
| Nc1ccccc1NC(=O)c1ccc(CNC(=O)OCc2cccnc2)cc1 | 107% and 100% and 98.1% | 90.8% and 105% and 99% | 90.4% and 74.8% and 71.6% | 63.6% and 66.1% and 48.9% | 37.2% and 42.8% and 26.6% | 19.1% and 17% and 18.4% | 1860 nM and 2090 nM and 887 nM | – |
| Nc1ccn(C2OC(CO)C(O)C2(F)F)c(=O)n1 (stereo not given) | 32.3% and 35% and 33.6% | 38.3% and 35.4% and 37.6% | 32.6% and 36.3% and 46.9% | 37.1% and 36.9% and 40.4% | 39.2% and 35.1% and 36.5% | 31.2% and 31.4% and 32.4% | < 31.6 nM | – |
| Nc1ncn(C2CC(O)C(CO)O2)c(=O)n1 (stereo not given) | 91.6% and 90.4% and 90.8% | 95.1% and 95.6% and 86.2% | 95.8% and 81.7% and 82.5% | 83.9% and 75.5% and 76.9% | – | – | > 1000 nM | viability, T/C (compound 0.00316 µM): 90.6% and 101% and 102%; viability, T/C (compound 0.01 µM): 101% (2×) and 105% |
| Nc1ncn(C2CC(O)C(CO)S2)c(=O)n1 (stereo not given) | – | – | – | – | – | – | > 300 nM | viability, T/C (compound 0.000949 µM): 92% and 102% and 111%; viability, T/C (compound 0.003 µM): 109% and 115% and 113%; viability, T/C (compound 0.00949 µM): 102% and 106% and 113%; viability, T/C (compound 0.03 µM): 88% and 106% and 100%; viability, T/C (compound 0.0949 µM): 82.2% and 87.7% and 100%; viability, T/C (compound 0.3 µM): 67.3% and 67.2% and 64.9% |
| O=C(C=Cc1cccc(S(=O)(=O)Nc2ccccc2)c1)NO | 104% and 98.7% and 101% | 105% and 99.7% and 84.2% | 85.4% and 76.4% and 76.7% | 54.8% and 58.9% and 56.1% | 25.9% and 28.1% and 21.8% | 3.85% and 5.28% and 4.17% | 1250 nM and 1330 nM and 1110 nM | – |
| O=C(C=Cn1cnc(-c2cc(C(F)(F)F)cc(C(F)(F)F)c2)n1)NNc1cnccn1 | – | – | – | – | – | – | 2220 nM and > 3000 nM | viability, T/C (compound 0.00949 µM): 91.3% (2×) and 109%; viability, T/C (compound 0.03 µM): 104% and 93.8% and 98.7%; viability, T/C (compound 0.0949 µM): 89.4% and 85% and 83.4%; viability, T/C (compound 0.3 µM): 80.2% and 78.5% and 72.8%; viability, T/C (compound 0.949 µM): 65.8% and 77.7% and 69.5%; viability, T/C (compound 3 µM): 44.5% and 54% and 67.8% |
| O=C(c1cc(Cc2n[nH]c(=O)c3ccccc23)ccc1F)N1CCN(C(=O)C2CC2)CC1 | 100% and 98.6% and 97.2% | 103% and 96.9% and 88.5% | 95.3% and 93.3% and 86.6% | 102% and 93.8% and 87.4% | 94.5% and 91.3% and 93.1% | 74.8% and 82.6% and 69.8% | > 10000 nM | – |
